One test deals with Rho kinase 1 (ROCK-I) (Homo sapiens, UniProt Q13464). Put plainly: In vitro Rho kinase inhibitory activity assay (ADP-Glo), Rho kinase 1. It is filed as biochemical. As to conditions: 10 μM ATP, 25° C., expressed as range of activity. The method, boiled down: (§1)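 ADP-Glo luminescence assay at 25 °C in 40 mM Tris pH 7.5, 20 mM MgCl2, 0.1 mg/ml BSA, 50 μM DTT, with 2.5 μM myelin basic protein, 10 μM ATP and 1% DMSO. Compound and ROCK1 or ROCK2 were preincubated 30 min, then reacted 1 h. IC50 came from a sigmoidal fit; Ki via Cheng-Prusoff.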

A further test concerns the target Rho kinase 2 (ROCK-II) (Homo sapiens, UniProt O75116). Put plainly: In vitro Rho kinase inhibitory activity assay (ADP-Glo), Rho kinase 2. The conditions noted are these: 10 μM ATP, 25° C., expressed as range of activity. It is filed as biochemical. The method, boiled down: as §1
In general terms: ADP-Glo first removes unused ATP, then detects ADP through luciferase.

SMILES strings stand for the structures. Some results are limits rather than exact numbers.

Chain of Rho kinase 2 (ROCK-II) (O75116 whole entry): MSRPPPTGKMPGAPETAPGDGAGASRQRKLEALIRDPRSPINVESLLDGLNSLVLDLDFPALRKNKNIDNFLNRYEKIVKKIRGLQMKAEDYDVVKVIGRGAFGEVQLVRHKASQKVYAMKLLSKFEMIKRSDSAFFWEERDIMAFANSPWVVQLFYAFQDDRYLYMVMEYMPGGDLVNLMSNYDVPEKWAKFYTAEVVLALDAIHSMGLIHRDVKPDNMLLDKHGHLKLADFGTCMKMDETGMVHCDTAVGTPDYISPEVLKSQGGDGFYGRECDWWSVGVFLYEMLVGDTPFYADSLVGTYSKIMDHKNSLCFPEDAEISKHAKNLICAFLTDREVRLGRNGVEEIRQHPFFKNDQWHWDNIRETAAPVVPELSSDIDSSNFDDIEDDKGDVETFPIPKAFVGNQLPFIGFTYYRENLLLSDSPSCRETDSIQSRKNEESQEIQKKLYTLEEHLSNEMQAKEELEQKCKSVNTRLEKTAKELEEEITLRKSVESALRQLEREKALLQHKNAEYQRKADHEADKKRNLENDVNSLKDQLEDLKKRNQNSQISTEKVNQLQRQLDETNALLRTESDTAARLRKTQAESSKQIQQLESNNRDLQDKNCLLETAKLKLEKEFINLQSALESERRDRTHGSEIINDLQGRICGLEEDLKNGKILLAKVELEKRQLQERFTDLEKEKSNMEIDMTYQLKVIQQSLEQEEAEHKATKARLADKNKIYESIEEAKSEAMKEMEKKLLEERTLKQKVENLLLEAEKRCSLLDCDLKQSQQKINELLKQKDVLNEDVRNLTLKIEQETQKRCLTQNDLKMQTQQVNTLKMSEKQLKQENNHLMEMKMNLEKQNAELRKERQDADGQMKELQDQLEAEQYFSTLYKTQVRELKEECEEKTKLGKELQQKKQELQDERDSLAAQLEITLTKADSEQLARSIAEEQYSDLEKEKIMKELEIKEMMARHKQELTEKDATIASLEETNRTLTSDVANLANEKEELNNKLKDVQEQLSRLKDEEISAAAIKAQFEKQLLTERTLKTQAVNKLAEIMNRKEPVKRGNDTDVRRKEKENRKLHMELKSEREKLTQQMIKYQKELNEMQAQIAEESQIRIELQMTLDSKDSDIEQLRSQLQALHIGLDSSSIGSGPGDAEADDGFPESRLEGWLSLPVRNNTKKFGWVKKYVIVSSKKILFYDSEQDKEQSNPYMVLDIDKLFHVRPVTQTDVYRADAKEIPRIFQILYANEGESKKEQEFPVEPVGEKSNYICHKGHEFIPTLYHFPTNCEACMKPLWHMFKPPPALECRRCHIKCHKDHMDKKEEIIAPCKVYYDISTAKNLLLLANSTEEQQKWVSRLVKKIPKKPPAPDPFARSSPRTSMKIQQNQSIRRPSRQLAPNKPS
Chain of Rho kinase 1 (ROCK-I) (Q13464 whole entry): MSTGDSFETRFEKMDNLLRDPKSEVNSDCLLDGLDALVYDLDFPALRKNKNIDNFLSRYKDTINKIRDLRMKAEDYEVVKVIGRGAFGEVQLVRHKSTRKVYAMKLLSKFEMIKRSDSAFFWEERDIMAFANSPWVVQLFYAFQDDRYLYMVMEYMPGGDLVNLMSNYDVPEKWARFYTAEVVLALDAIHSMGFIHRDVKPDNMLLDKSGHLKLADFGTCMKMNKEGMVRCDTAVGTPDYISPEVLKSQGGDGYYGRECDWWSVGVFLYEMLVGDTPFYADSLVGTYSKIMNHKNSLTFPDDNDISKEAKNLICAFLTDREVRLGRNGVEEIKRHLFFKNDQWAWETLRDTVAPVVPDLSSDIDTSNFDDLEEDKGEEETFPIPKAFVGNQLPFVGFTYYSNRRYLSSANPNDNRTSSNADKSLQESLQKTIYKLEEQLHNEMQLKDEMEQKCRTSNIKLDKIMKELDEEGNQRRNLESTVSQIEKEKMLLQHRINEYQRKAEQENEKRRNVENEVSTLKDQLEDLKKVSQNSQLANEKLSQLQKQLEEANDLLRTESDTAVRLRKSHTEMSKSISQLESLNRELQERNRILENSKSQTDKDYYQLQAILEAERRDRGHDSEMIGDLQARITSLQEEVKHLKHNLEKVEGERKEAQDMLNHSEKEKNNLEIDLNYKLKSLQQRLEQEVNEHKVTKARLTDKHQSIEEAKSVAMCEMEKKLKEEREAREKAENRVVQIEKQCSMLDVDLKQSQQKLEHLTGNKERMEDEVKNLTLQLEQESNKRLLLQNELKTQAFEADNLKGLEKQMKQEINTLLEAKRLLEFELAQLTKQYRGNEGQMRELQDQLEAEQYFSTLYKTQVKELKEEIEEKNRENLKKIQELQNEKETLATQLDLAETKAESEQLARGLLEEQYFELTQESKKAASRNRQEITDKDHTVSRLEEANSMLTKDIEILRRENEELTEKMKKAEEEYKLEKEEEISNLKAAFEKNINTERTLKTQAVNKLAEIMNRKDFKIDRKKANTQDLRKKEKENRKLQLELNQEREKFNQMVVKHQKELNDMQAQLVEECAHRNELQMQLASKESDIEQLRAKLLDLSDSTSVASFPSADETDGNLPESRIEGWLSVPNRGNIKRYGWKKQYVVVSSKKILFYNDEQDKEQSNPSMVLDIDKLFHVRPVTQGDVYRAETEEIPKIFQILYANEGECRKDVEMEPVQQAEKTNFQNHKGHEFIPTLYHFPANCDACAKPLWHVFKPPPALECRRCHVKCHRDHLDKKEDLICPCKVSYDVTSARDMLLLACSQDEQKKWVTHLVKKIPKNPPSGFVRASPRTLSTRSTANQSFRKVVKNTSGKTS

Regarding `CN1CCC(NC(=O)[C@@H](N)Cc2ccc(Oc3ccnc4[nH]cc(-c5ccccc5)c34)c(F)c2)CC1` [Example 204, (S)-2-amino-3-(3-fluoro-4-((3-phenyl-1H-pyrrolo[2,3-b]pyridin-4-yl)oxy)phenyl)-N-(1-methylpiperidin-4-yl)propanamide], the Ki on Rho kinase 1 (ROCK-I) and at Rho kinase 2 (ROCK-II) was under 3 nM in each case.

For `Cc1noc(C2CCN(C(=O)[C@@H](N)Cc3ccc(Oc4ccnc5[nH]cc(C)c45)c(F)c3)C2)n1` (single isomer, unassigned) [Example 8A], the Ki at Rho kinase 1 (ROCK-I) and on Rho kinase 2 (ROCK-II) was under 3 nM in each case.

As for `Cc1c[nH]c2nccc(Oc3ccc(C[C@H](N)C(=O)N4CCN(C(=O)c5cccc(CN(C)C)c5)CC4)cc3F)c12` [Example 173, (S)-2-amino-1-(4-(3-((dimethylamino)methyl)benzoyl)piperazin-1-yl)-3-(3-fluoro-4-((3-methyl-1H-pyrrolo[2,3-b]pyridin-4-yl)oxy)phenyl)propan-1-one], the Ki on Rho kinase 1 (ROCK-I) and on Rho kinase 2 (ROCK-II) was under 3 nM in each case.

For the compound `NC(Cc1ccc(Oc2ccnc3[nH]ccc23)cc1)C(=O)Nc1ccc(C(F)(F)F)cc1` (stereo not shown) [Example 91, 3-(4-((1H-pyrrolo[2,3-b]pyridin-4-yl)oxy)phenyl)-2-amino-N-(4-(trifluoromethyl)phenyl)propanamide], the Ki was 3 to 30 nM on Rho kinase 1 (ROCK-I) and under 3 nM at Rho kinase 2 (ROCK-II).

As for `Cc1c[nH]c2nccc(Oc3ccc(C[C@H](N)C(=O)NC4(CO)CCOCC4)cc3F)c12` [Example 33, (S)-2-amino-3-(3-fluoro-4-((3-methyl-1H-pyrrolo[2,3-b]pyridin-4-yl)oxy)phenyl)-N-(4-(hydroxymethyl)tetrahydro-2H-pyran-4-yl)propanamide], the Ki at Rho kinase 1 (ROCK-I) and on Rho kinase 2 (ROCK-II) was under 3 nM in each case.

As for `Cc1c[nH]c2nccc(Oc3ccc(C[C@H](N)C(=O)N4CCN(C(=O)C5CC5)CC4)cc3F)c12` [Example 170, (S)-2-amino-1-(4-(cyclopropanecarbonyl)piperazin-1-yl)-3-(3-fluoro-4-((3-methyl-1H-pyrrolo[2,3-b]pyridin-4-yl)oxy)phenyl)propan-1-one], the Ki at Rho kinase 1 (ROCK-I) and on Rho kinase 2 (ROCK-II) was under 3 nM throughout.

Consider `Cc1c[nH]c2nccc(Oc3ccc(C[C@H](N)C(=O)N(C)C4CCCCC4)cc3)c12` [Example 134, (S)-2-amino-N-cyclohexyl-N-methyl-3-(4-((3-methyl-1H-pyrrolo[2,3-b]pyridin-4-yl)oxy)phenyl)propanamide], for which the Ki on Rho kinase 1 (ROCK-I) and on Rho kinase 2 (ROCK-II) was under 3 nM in each case.

`Cc1c[nH]c2nccc(Oc3ccc(C[C@H](N)C(=O)N4CCC(S(=O)(=O)c5ccccc5)CC4)cc3F)c12` [Example 7, (S)-2-amino-3-(3-fluoro-4-((3-methyl-1H-pyrrolo[2,3-b]pyridin-4-yl)oxy)phenyl)-1-(4-(phenylsulfonyl)piperidin-1-yl)propan-1-one]: the Ki on Rho kinase 1 (ROCK-I) and on Rho kinase 2 (ROCK-II) was under 3 nM throughout.

Take `Cn1cncc1-c1c[nH]c2nccc(Oc3ccc(C[C@H](N)C(=O)N4CCN(Cc5ccccc5)CC4)cc3)c12` [Example 197, (S)-2-amino-1-(4-benzylpiperazin-1-yl)-3-(4-((3-(1-methyl-1H-imidazol-5-yl)-1H-pyrrolo[2,3-b]pyridin-4-yl)oxy)phenyl)propan-1-one]: the Ki on Rho kinase 1 (ROCK-I) and at Rho kinase 2 (ROCK-II) was under 3 nM each time.

On to `Cc1c[nH]c2nccc(Oc3ccc(C[C@H](N)C(=O)N4CC(N(C)C)C4)cc3F)c12` [Example 41, (S)-2-amino-1-(3-(dimethylamino)azetidin-1-yl)-3-(3-fluoro-4-((3-methyl-1H-pyrrolo[2,3-b]pyridin-4-yl)oxy)phenyl)propan-1-one], for which the Ki at Rho kinase 1 (ROCK-I) and on Rho kinase 2 (ROCK-II) was under 3 nM each time.

As to `CN[C@@H](Cc1ccc(Oc2ccnc3[nH]ccc23)cc1)C(=O)NC1CCCCC1` [Example 131, (S)-3-(4-((1H-pyrrolo[2,3-b]pyridin-4-yl)oxy)phenyl)-N-cyclohexyl-2-(methylamino)propanamide], the Ki at Rho kinase 1 (ROCK-I) is 3 to 30 nM; at Rho kinase 2 (ROCK-II), under 3 nM.

As for `Cc1c[nH]c2nccc(Oc3ccc(CC(N)C(=O)N4CCN(CC5CC5)CC4)cc3F)c12` (stereo not shown) [Example 58, 2-amino-1-(4-(cyclopropylmethyl)piperazin-1-yl)-3-(3-fluoro-4-((3-methyl-1H-pyrrolo[2,3-b]pyridin-4-yl)oxy)phenyl)propan-1-one], the Ki at Rho kinase 1 (ROCK-I) and at Rho kinase 2 (ROCK-II) was under 3 nM throughout.

As to `Cc1c[nH]c2nccc(Oc3ccc(CC(N)C(=O)N4CCN(Cc5ccccc5)CC4)cc3F)c12` (single isomer, unassigned) [Example 132A, 2-amino-1-(4-benzylpiperazin-1-yl)-3-(3-fluoro-4-((3-methyl-1H-pyrrolo[2,3-b]pyridin-4-yl)oxy)phenyl)propan-1-one], the Ki at Rho kinase 1 (ROCK-I) and on Rho kinase 2 (ROCK-II) was under 3 nM in each case.

On to `CN1CCC(NC(=O)[C@@H](N)Cc2ccc(Oc3ccnc4[nH]cc(-c5cncs5)c34)c(F)c2)CC1` [Example 205, (S)-2-amino-3-(3-fluoro-4-((3-(thiazol-5-yl)-1H-pyrrolo[2,3-b]pyridin-4-yl)oxy)phenyl)-N-(1-methylpiperidin-4-yl)propanamide], for which the Ki at Rho kinase 1 (ROCK-I) and on Rho kinase 2 (ROCK-II) was under 3 nM each time.

For the compound `Cc1c[nH]c2nccc(Oc3ccc(CC(N)C(=O)NCCc4ccncc4)cc3F)c12` (stereo not shown) [Example 57, 2-amino-3-(3-fluoro-4-((3-methyl-1H-pyrrolo[2,3-b]pyridin-4-yl)oxy)phenyl)-N-(2-(pyridin-4-yl)ethyl)propanamide], the Ki at Rho kinase 1 (ROCK-I) and at Rho kinase 2 (ROCK-II) was under 3 nM throughout.

For the compound `Cc1c[nH]c2nccc(Oc3ccc(CC(N)C(=O)NCCc4ccncc4)cc3F)c12` (single isomer, unassigned) [Example 57A, 2-amino-3-(3-fluoro-4-((3-methyl-1H-pyrrolo[2,3-b]pyridin-4-yl)oxy)phenyl)-N-(2-(pyridin-4-yl)ethyl)propanamide], the Ki on Rho kinase 1 (ROCK-I) is 3 to 30 nM; at Rho kinase 2 (ROCK-II) it was under 3 nM.

`Cc1c[nH]c2nccc(Oc3ccc(C[C@H](N)C(=O)N4CCC(Oc5cccnc5)CC4)cc3F)c12` [Example 11, (S)-2-amino-3-(3-fluoro-4-((3-methyl-1H-pyrrolo[2,3-b]pyridin-4-yl)oxy)phenyl)-1-(4-(pyridin-3-yloxy)piperidin-1-yl)propan-1-one]: the Ki on Rho kinase 1 (ROCK-I) and on Rho kinase 2 (ROCK-II) was under 3 nM in each case.

Take `Cc1c[nH]c2nccc(Oc3ccc(C[C@H](N)C(=O)NC4(CN(C)C)CCCCC4)cc3F)c12` [Example 38, (S)-2-amino-N-(1-((dimethylamino)methyl)cyclohexyl)-3-(3-fluoro-4-((3-methyl-1H-pyrrolo[2,3-b]pyridin-4-yl)oxy)phenyl)propanamide]: the Ki at Rho kinase 1 (ROCK-I) and on Rho kinase 2 (ROCK-II) was under 3 nM throughout.

Regarding `Cc1cc2c(Oc3ccc(C[C@H](N)C(=O)N4CCN(Cc5ccccc5)CC4)cc3F)ccnc2[nH]1` [Example 86, (S)-2-amino-1-(4-benzylpiperazin-1-yl)-3-(3-fluoro-4-((2-methyl-1H-pyrrolo[2,3-b]pyridin-4-yl)oxy)phenyl)propan-1-one], the Ki on Rho kinase 1 (ROCK-I) and on Rho kinase 2 (ROCK-II) was over 30 nM each time.

On to `Cc1c[nH]c2nccc(Oc3ccc(C[C@H](N)C(=O)N4CCC(O)(Cc5ccccc5)CC4)cc3F)c12` [Example 9, (S)-2-amino-1-(4-benzyl-4-hydroxypiperidin-1-yl)-3-(3-fluoro-4-((3-methyl-1H-pyrrolo[2,3-b]pyridin-4-yl)oxy)phenyl)propan-1-one], for which the Ki at Rho kinase 1 (ROCK-I) and at Rho kinase 2 (ROCK-II) was under 3 nM each time.

For the compound `CN(C)CCCNC(=O)[C@@H](N)Cc1ccc(Oc2ccnc3[nH]cc(CO)c23)c(F)c1` [Example 212, (S)-2-amino-N-(3-(dimethylamino)-propyl)-3-(3-fluoro-4-((3-(hydroxymethyl)-1H-pyrrolo[2,3-b]pyridin-4-yl)oxy)phenyl)propanamide], the Ki on Rho kinase 1 (ROCK-I) and at Rho kinase 2 (ROCK-II) was 3 to 30 nM in each case.

With `CN(C)C(=O)C(Cc1ccc(Oc2ccnc3[nH]ccc23)cc1)NC(=O)C1CCNC1` (stereo not shown) [Example 178, N-(3-(4-((1H-pyrrolo[2,3-b]pyridin-4-yl)oxy)phenyl)-1-(dimethylamino)-1-oxopropan-2-yl)pyrrolidine-3-carboxamide], the Ki at Rho kinase 1 (ROCK-I) and on Rho kinase 2 (ROCK-II) was over 30 nM in each case.

On to `Cc1c[nH]c2ncnc(Oc3ccc(C[C@H](N)C(=O)N4CCC(O)(Cc5ccccc5)CC4)cc3F)c12` [Example 123, (S)-2-amino-1-(4-benzyl-4-hydroxypiperidin-1-yl)-3-(3-fluoro-4-((5-methyl-7H-pyrrolo[2,3-d]pyrimidin-4-yl)oxy)phenyl)propan-1-one], for which the Ki on Rho kinase 1 (ROCK-I) and on Rho kinase 2 (ROCK-II) was under 3 nM in each case.

For `Cc1c[nH]c2nccc(Oc3ccc(CC(N)C(=O)Nc4cccnc4)cc3F)c12` (stereo not shown) [Example 70, 2-amino-3-(3-fluoro-4-((3-methyl-1H-pyrrolo[2,3-b]pyridin-4-yl)oxy)phenyl)-N-(pyridin-3-yl)propanamide], the Ki on Rho kinase 1 (ROCK-I) and on Rho kinase 2 (ROCK-II) was under 3 nM throughout.

Regarding `Cc1c[nH]c2nccc(Oc3ccc(C[C@H](N)C(=O)N4CCN(C(=O)C5CCCCC5)CC4)cc3F)c12` [Example 168, (S)-2-amino-1-(4-(cyclohexanecarbonyl)piperazin-1-yl)-3-(3-fluoro-4-((3-methyl-1H-pyrrolo[2,3-b]pyridin-4-yl)oxy)phenyl)propan-1-one], the Ki on Rho kinase 1 (ROCK-I) and at Rho kinase 2 (ROCK-II) was under 3 nM throughout.

`Cc1c[nH]c2nccc(Oc3ccc(CC(N)C(=O)N4CCN(C)CC4CO)cc3F)c12` (stereo not shown) [Example 64, 2-amino-3-(3-fluoro-4-((3-methyl-1H-pyrrolo[2,3-b]pyridin-4-yl)oxy)phenyl)-1-(2-(hydroxymethyl)-4-methylpiperazin-1-yl)propan-1-one]: the Ki at Rho kinase 1 (ROCK-I) was 3 to 30 nM; on Rho kinase 2 (ROCK-II), under 3 nM.

A word on the Ki: it is a dissociation constant, usually derived from enzyme kinetics or from competition with a known ligand. Read a low Ki as higher affinity.

The record behind these values is US10501461B2, “Tyrosine amide derivatives as Rho-kinase inhibitors” (CHIESI FARMACEUTICI S.P.A., priority 2017, dated 2019).
